Broadly, the IC50 is the midpoint of a concentration-inhibition curve.

This experiment concerns the target T1, human chemokine receptor 2 isoform B (Homo sapiens, UniProt P41597).
T1 construct: host or cells: CHOK1-CCR2B-A5 (CHO-K1) cells
T1 sequence (P41597 1-360 isoform P41597-2): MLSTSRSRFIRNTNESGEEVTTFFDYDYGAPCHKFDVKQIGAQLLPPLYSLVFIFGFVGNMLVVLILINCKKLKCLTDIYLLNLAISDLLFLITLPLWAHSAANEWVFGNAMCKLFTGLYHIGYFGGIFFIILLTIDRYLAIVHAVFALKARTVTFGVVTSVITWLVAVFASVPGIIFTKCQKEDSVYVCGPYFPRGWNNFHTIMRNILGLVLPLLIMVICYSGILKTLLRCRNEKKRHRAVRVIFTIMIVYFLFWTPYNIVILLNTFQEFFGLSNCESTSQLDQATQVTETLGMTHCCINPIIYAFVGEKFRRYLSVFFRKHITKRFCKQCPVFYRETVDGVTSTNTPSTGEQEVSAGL
In words: Calcium mobilization assay. The class given is cell-based. To be noted: Ca mobilization assay for CCR2; CHOK1-CCR2B-A5 cells; antagonist activity against 20 nM MCP-1; FLIPR, Fluo-4. How it is done: Calcium Mobilization Assay
CHOK1-CCR2B-A5 cells (from Euroscreen) stably overexpressing the human chemokine receptor 2 isoform B were cultured in Nutrient Hams F12 medium supplemented with 5% FBS, 100 U/ml penicillin, 100 μg/ml streptomycin, 400 μg/ml G418 and 5 μg/ml puromycin.
For the assay cells were grown overnight in 384-well black clear flat bottom polystyrene plates (Costar) at 37° C. at 5% CO2. After washing with DMEM, 20 mM Hepes, 2.5 mM probenecid, 0.1% BSA (DMEM assay buffer) cells were loaded with 4 μM Fluo-4 in the same DMEM assay buffer for 2 hours at 30° C. Excess dye was removed and cells were washed with DMEM assay buffer. 384-well compound plates were prepared with DMEM assay buffer/0.5% dimethyl sulfoxide with or without various concentrations of test compounds. Usually compounds were tested for agonist and antagonist activity.
Test compounds were added to the assay plate and agonist activity was monitored as fluorescence for 80 seconds with a FLIPR (488 nm excitation; 510-570 nm emission; Molecular Devices). After 20-30 min. of incubation at 30° C., 20 nM MCP-1 (R&D; Roche) was added and fluorescence was monitored again for 80 seconds. Increases in intracellular calcium are reported as maximum fluorescence after agonist exposure minus basal fluorescence before exposure. Antagonist activity is indicated as inhibitor concentration required for 50% inhibition of specific calcium increases.
For orientation: A change in cytosolic calcium serves as a functional read-out for many receptors and channels.
On to `CC1C(=O)N(CCCN2CCCCC2)CCN1c1cccc(OC(F)(F)F)c1` (stereo not shown) [Example 41, 3-Methyl-1-(3-piperidin-1-yl-propyl)-4-(3-trifluoromethoxy-phenyl)-piperazin-2-one], for which the IC50 came to 580 nM.

Consider `CC1C(=O)N(CCCN2CCCCC2)CCN1c1cccc(C(F)(F)F)c1` (stereo not shown) [Example 51, 3-Methyl-1-(3-piperidin-1-yl-propyl)-4-(3-trifluoromethyl-phenyl)-piperazin-2-one], for which the half-maximal inhibitory concentration (IC50) turned out to be 190 nM.

In the case of `C[C@H]1C(=O)N(CCCN2CCC3(CC3)[C@H](O)C2)CCN1c1ccc(Cl)c(OC(F)(F)F)c1` [Example 84, (S)-4-(4-Chloro-3-trifluoromethoxy-phenyl)-1-[3-((S)-4-hydroxy-6-aza-spiro[2.5]oct-6-yl)-propyl]-3-methyl-piperazin-2-one], the IC50 came out at 15 nM.

Consider `CN(C)C(=O)C(CCCN1CCC(C)(O)CC1)N1CCN(c2cccc(C(F)(F)F)c2)CCC1=O` (racemic) [Example 25, (rac)-5-(4-Hydroxy-4-methyl-piperidin-1-yl)-2-[7-oxo-4-(3-trifluoromethyl-phenyl)-[1,4]diazepan-1-yl]-pentanoic acid dimethylamide], for which the IC50 is 200 nM.

Regarding `COC[C@H](CCN1C[C@@H](C)C[C@H](O)C1)N1CCN(c2cccc(C(F)(F)F)c2)CCC1=O` [Example 24, 4-[(S)-3-((3S,5S)-3-Hydroxy-5-methyl-piperidin-1-yl)-1-methoxymethyl-propyl]-1-(3-trifluoromethyl-phenyl)-[1,4]diazepan-5-one], the IC50 was found to be 90 nM.

Take `C[C@@H]1C(=O)N(C[C@H](O)CN2CCC3(CC3)[C@H](O)C2)CCN1c1ccc(Cl)c(Cl)c1` [Example 100, (R)-4-(3,4-Dichloro-phenyl)-1-[(R)-2-hydroxy-3-((S)-4-hydroxy-6-aza-spiro[2.5]oct-6-yl)-propyl]-3-methyl-piperazin-2-one]: the IC50 was 334 nM.

Turning to `C[C@H]1C(=O)N(CCCN2CCC3(CC3)[C@H](O)C2)CCN1c1ccc(-c2ccccc2)cc1` [Example 80, (S)-4-Biphenyl-4-yl-1-[3-((S)-4-hydroxy-6-aza-spiro[2.5]oct-6-yl)-propyl]-3-methyl-piperazin-2-one], the IC50 is 318 nM.

For the compound `C[C@H]1C(=O)N(CCCCN2CCC3(CC3)[C@H](O)C2)CCN1c1cccc(OC(F)(F)F)c1` [Example 95, (S)-1-[4-((S)-4-Hydroxy-6-aza-spiro[2.5]oct-6-yl)-butyl]-3-methyl-4-(3-trifluoromethoxy-phenyl)-piperazin-2-one], the IC50 turned out to be 13 nM.

With `C[C@H]1C(=O)N(C[C@H](O)CCN2CCC3(CC3)[C@H](O)C2)CCN1c1ccc(Cl)c(Cl)c1` [Example 104, (S)-4-(3,4-Dichloro-phenyl)-1-[(R)-2-hydroxy-4-((S)-4-hydroxy-6-aza-spiro[2.5]oct-6-yl)-butyl]-3-methyl-piperazin-2-one], the half-inhibitory concentration (IC50) turned out to be 203 nM.

For `CC1C(=O)N(CCCN2CCCCC2)CCN1c1ccc(Cl)c(C(F)(F)F)c1` (stereo not shown) [Example 70, 4-(4-Chloro-3-trifluoromethyl-phenyl)-3-methyl-1-(3-piperidin-1-yl-propyl)-piperazin-2-one], the IC50 was found to be 579 nM.

On to `C[C@H]1C(=O)N(CCCN2CCC3(CC3)[C@H](O)C2)CCN1c1ccc(Cl)c(C(F)(F)F)c1` [Example 76, (S)-4-(4-Chloro-3-trifluoromethyl-phenyl)-1-[3-((S)-4-hydroxy-6-aza-spiro[2.5]oct-6-yl)-propyl]-3-methyl-piperazin-2-one], for which the 50% inhibitory concentration (IC50) worked out at 7 nM.

With `COC[C@H](CCN1CCC2(CC2)[C@H](O)C1)N1CCN(c2cccc(C(F)(F)F)c2)CCC1=O` [Example 23, 4-[(S)-3-((S)-4-Hydroxy-6-aza-spiro[2.5]oct-6-yl)-1-methoxymethyl-propyl]-1-(3-trifluoromethyl-phenyl)-[4]diazepan-5-one], the IC50 is 10 nM.

Regarding `C[C@H]1C(=O)N(C[C@@H](O)CN2CCC3(CC3)[C@H](O)C2)CCN1c1ccc(Cl)c(Cl)c1` [Example 99, (S)-4-(3,4-dichloro-phenyl)-1-[(S)-2-hydroxy-3-((S)-4-hydroxy-6-aza-spiro[2.5]oct-6-yl)-propyl]-3-methyl-piperazin-2-one], the IC50 is 8 nM.

In the case of `CN(CCO)C(=O)[C@H](CCN1CCC2(CC2)[C@H](O)C1)N1CCN(c2ccc(Cl)c(Cl)c2)CCC1=O` [Example 61, (S)-2-[4-(3,4-Dichloro-phenyl)-7-oxo-[1,4]diazepan-1-yl]-4-((S)-4-hydroxy-6-aza-spiro[2.5]oct-6-yl)-N-(2-hydroxy-ethyl)-N-methyl-butyramide], the IC50 was 76 nM.

With `C[C@H]1C(=O)N(CCCCN2CCC3(CC3)[C@H](O)C2)CCN1c1ccc(Cl)c(Cl)c1` [Example 94, (S)-4-(3,4-Dichloro-phenyl)-1-[4-((S)-4-hydroxy-6-aza-spiro[2.5]oct-6-yl)-butyl]-3-methyl-piperazin-2-one], the IC50 was 8 nM.

Regarding `O=C1CCN(c2cccc(C(F)(F)F)c2)CCN1[C@@H](CO)CCN1CCC2(CC2)[C@H](O)C1` [Example 9, 4-[(R)-3-((S)-4-Hydroxy-6-aza-spiro[2.5]oct-6-yl)-1-hydroxymethyl-propyl]-1-(3-trifluoromethyl-phenyl)-[1,4]diazepan-5-one], the half-inhibitory concentration (IC50) was found to be 180 nM.

Turning to `C[C@H]1C(=O)N(CCCN2CCC3(CC3)[C@H](O)C2)CCN1c1ccc2ccccc2c1` [Example 82, (S)-1-[3-((S)-4-Hydroxy-6-aza-spiro[2.5]oct-6-yl)-propyl]-3-methyl-4-naphthalen-2-yl-piperazin-2-one], the concentration for half-maximal inhibition (IC50) was determined as 73 nM.

Turning to `COC(=O)[C@H](CCN1CCC2(CC2)[C@H](O)C1)N1CCN(c2cccc(OC(F)(F)F)c2)CCC1=O` [Example 13, (S)-4-((S)-4-Hydroxy-6-aza-spiro[2.5]oct-6-yl)-2-[7-oxo-4-(3-trifluoromethoxy-phenyl)-[1,4]diazepan-1-yl]-butyric acid methyl ester], the half-inhibitory concentration (IC50) is 30 nM.

Regarding `CC1C(=O)N(C(CO)CCN2CCC3(CC3)[C@H](O)C2)CCN1c1cccc(OC(F)(F)F)c1` (stereo partly drawn) [Example 49, 1-[3-((S)-4-hydroxy-6-aza-spiro[2.5]oct-6-yl)-1-hydroxymethyl-propyl]-3-methyl-4-(3-trifluoromethoxy-phenyl)-piperazin-2-one], the IC50 was determined as 5 nM.

Consider `COC(=O)C(CCN1CCC2(CC2)[C@H](O)C1)N1CCN(c2cccc(OC(F)(F)F)c2)C(C)C1=O` (stereo partly drawn) [Example 47, 4-((S)-4-Hydroxy-6-aza-spiro[2.5]oct-6-yl)-2-[3-methyl-2-oxo-4-(3-trifluoromethoxy-phenyl)-piperazin-1-yl]-butyric acid methyl ester], for which the half-maximal inhibitory concentration (IC50) came to 10 nM.

Consider `C[C@H]1C(=O)N(C[C@H](O)CN2CCC3(CC3)[C@H](O)C2)CCN1c1ccc(Cl)c(Cl)c1` [Example 101, (S)-4-(3,4-dichloro-phenyl)-1-[(R)-2-hydroxy-3-((S)-4-hydroxy-6-aza-spiro[2.5]oct-6-yl)-propyl]-3-methyl-piperazin-2-one], for which the 50% inhibitory concentration (IC50) was 73 nM.

Turning to `CN(C)C(=O)[C@H](CCN1CCC2(CC2)[C@H](O)C1)N1CCN(c2ccc(Cl)c(Cl)c2)CCC1=O` [Example 59, (S)-2-[4-(3,4-Dichloro-phenyl)-7-oxo-[1,4]diazepan-1-yl]-4-((S)-4-hydroxy-6-aza-spiro[2.5]oct-6-yl)-N,N-dimethyl-butyramide], the IC50 was determined as 80 nM.

(Values after patent publication US8138175B2, “Heterocyclyl compounds” (Hoffmann-La Roche Inc., priority 2008, dated 2012).)
